# Data published in patent publication US20080249142A1, “HYDRO[…] OF ME[…]” (Targacept, Inc., priority 2004, published 2008).
# Assay: physical and chemical properties of the hydroxybenzoate salts (stated, no method described)
# Assay type: physicochemical
# Settings: solid salt, free-flowing crystalline powder
substance,measurement,value
(2S)-(4E)-N-methyl-5-(5-isopropoxy-3-pyridinyl)-4-penten-2-amine p-hydroxybenzoate [Example 1],physical and chemical stability of the salt,physically and chemically stable
